Experimental data reported in US6432997B1, “Pyrazole pesticides” (Rhone-Poulenc, Inc., priority 1997, dated 2002).

How the values were obtained:
[1] = system: southern armyworm, cotton aphid, tobacco budworm and greenbug; assay: Systemic tests (soil drench / root uptake, systemic evaluation); type: in vivo
Procedure: For southern root-knot nematode and systemic tests for southern armyworm, cotton aphid, tobacco budworm and greenbug, a stock solution or suspension was prepared by adding 15 mg of the test compound to 250 mg of dimethylformamide, 1250 mg of acetone and 3 mg of the emulsifier blend referenced above. Water was then added to provide a test compound concentration of 150 ppm. When necessary, sonication was provided to insure complete dispersion.
Southern armyworm on tomato—systemic evaluation: This test was conducted in conjunction with the southern root-knot nematode evaluation (discussed below). The tomato plants, grown in the soil (at an initial compound test screening rate of 6.6 ppm soil concentration or about 150 ppm solution concentration) for nematode evaluation, were then utilized for evaluation of a compound's uptake via roots and subsequent systemic transport to the tomato foliage. […]
Cotton aphid and tobacco budworm (on cotton) and greenbug and tobacco budworm (on sorghum)—systemic evaluation: A 7.0 ml aliquot of the 150 ppm nematode test solution was applied to deliver the equivalent of 10.0 ppm soil concentration dose as a drench to 6 cm pots containing cotton and sorghum plants. […] Again at six days, the plants were rated for aphid activity and the cotton aphids and greenbugs were counted and mortality was assessed. […] Mortality was assessed six days after infestation. […]

Lucilia sericata = conditions: single species; from WO 92/13451 (Schering Agrochemicals Ltd.); cited from earlier work

Substance: 5-Amino-1-[2,6-dichloro-4-(trifluoromethyl)phenyl]-4-trifluoromethylsulfinyl-N-hydroxy-N-methyl-1H-pyrazole carboximidamide [Compound 2]
- activity in the systemic tests [1]: particularly good activity

Substance: 5-Amino-1-[2,6-dichloro-4-(trifluoromethyl)phenyl]-4-methylsulfinyl-N-hydroxy-N-methyl-1H-pyrazole carboximidamide [Compound 1]
- activity in the systemic tests [1]: particularly good activity

Substance: 5-chloro-1-[2,6-dichloro-4-(trifluoromethyl)phenyl]-4-(4,5-1H-pyrazole
- activity against Lucilia sericata (Lucilia sericata): activity against a single species Lucilia sericata
